Here are results for five compounds from publication PMC11979685, “Synthesis of Derivatives of the Antibiotic Albicidin: The N‐Terminal Fragment as Key to Control Potency and Resistance Mediated by the Binding Protein AlbA” (Chemistry (Weinheim an Der Bergstrasse, Germany), 2025).

Each structure is given as a SMILES string. Values after ≈ are worked out from the molar mass of the structure shown. Some results are limits rather than exact numbers.

Data set [1] concerns the target bacterial DNA gyrase. More on the design: method as in PMID 17074789. The conditions noted are these: read-out: half maximum inhibitory concentration (IC50), DNA gyrase; cited from earlier work.
Data set [2] in a line: Reverse-phase HPLC retention time as estimate of lipophilicity. The format is physicochemical. The note with it: indicator of lipophilicity. The source says:
As mentioned before, albicidin 1 is a rather hydrophobic compound and improving its aqueous solubility is desirable. The lipophilicity of drug molecules is commonly characterized by the octanol/water partition coefficient (logP). An alternative approach relies on the correlation between lipophilicity and the retention time (Rt) on a reverse‐phase HPLC column.[31] This approach works well if structurally related compounds are compared as is the case for this SAR study. Rt was thus used to estimate the hydrophilicity of albicidin 1 and its derivatives 2–24 (Table 1).[32]

Data set [3] deals with Micrococcus luteus DSM 1790. Kind of data set: MIC determination (broth microdilution). It is filed as cell-based. The conditions noted are these: DSM1790, read-out: MIC M. luteus. As for the experimental part:
(§1) After completing the syntheses, the antibacterial activity of A‐variations 4–24 was assessed by determination of MIC values against a basic set of gram‐negative and gram‐positive bacteria (Table 1). The monocyclic derivatives 4–8 featuring a cyano‐, trifluoromethyl‐, methoxy‐ and fluoro‐ substituent in para‐position were very active against the gram–negative E. coli and S. typhimurium strains with MIC values in the same range as 3rd Gen albicidin 3 or ciprofloxacin which is the gold standard for gyrase inhibitors. […] These findings are in agreement with previous studies showing good activities for cyano, trifluoromethyl, methoxy and fluoro substituents in the para‐position of different aromatic rings in the building block A.[12, 13] The activity of the monocyclic derivatives 4–8 against the gram‐positive strains B. subtilis and M. luteus were similar but slightly less pronounced compared to the lead structure 3.
(§2) 1.1 Determination of Minimal Inhibitory Concentrations (MIC)
(§3) Minimal inhibitory concentration (MIC) against selected bacterial strains values were determined according to the ninth edition of the Approved Standard M07-A9.[1] 20 μL of cryo stocks of bacterial strains were suspended in 20 mL LB medium (Lysogeny broth: 10 g/L peptone, 5 g/L yeast extract, 5 g/L NaCl). Following incubation overnight at 37°C, 200 rpm, the test inoculum was adjusted by 0.5 McFarland Standard in cation adjusted Mueller-Hinton broth (BBLTM Mueller-Hinton Broth II, Becton, Dickinson and Company, New Jersey, USA) to approximately 1x10^6 CFU mL-1. 95 μL of the bacterial inoculum were applied per well of a 96-well plate. Albicidin and albicidin derivatives 3−24 were dissolved in DMSO (100%) to an initial concentration of 2560 μg/mL and serially diluted in DMSO (100%). Initial solution and serial dilutions of Ciprofloxacin were prepared in 0.1 N HCL, respectively. 5 μL of each antibiotic dilution were added to the microdilution tray to reach albicidin concentrations of 128 μg/mL to 0.016 μg/mL per well. One row of each well plate served as a growth control without antibiotic substances and another row of the microdilution tray served as sterility control (only MHB II - media). The antimicrobial effect of the solvent (DMSO) was tested by adding 5 μL DMSO to several wells. Purity check and cell titer control were performed according to International S tandard M07-A9 on Mueller-Hinton II Agar (Mueller Hinton II Broth, 15 g/L agar-agar). Both microdilution trays and agar plates were incubated at 30−37°C for 16 h and subsequently analyzed for growth inhibition by naked eye. The following primary panel of microorganisms were purchased from German Collection of Microorganisms and Cell Cultures (DSMZ):
(§4) Escherichia coli DSM 1116
(§5) Micrococcus luteus DSM 1790
(§6) Mycobacterium phlei DSM 750
(§7) Salmonella typhimurium TA100 was kindly provided by Prof. Dr. Vera Meyer (Technische Universität Berlin). […]
(§8) was purchased as part of the single gene knockout library of E. coli K12 BW25113 (Keio collection) from Horizon Discovery group plc (Cambridge, UK).

Data set [4] has as its system Bacillus subtilis DSM 10. Kind of data set: MIC determination (broth microdilution). The format is cell-based. The note with it: DSM10, read-out: MIC B. sub. The protocol: as §1, §2, §3, §4, §5, §6, §7, §8
Data set [5] deals with E. coli BW25113. Nature of the data set: MIC determination (broth microdilution). The format is cell-based. The note with it: Escherichia coli, BW25113; read-out: MIC E. coli BW25113. As for the experimental part: as §1, §2, §3, §4, §5, §6, §7, §8
For data set [6], the system named is Salmonella typhimurium TA100. Nature of the data set: MIC determination (broth microdilution). The note with it: Salmonella enterica, read-out: MIC S. typh. It is filed as cell-based. The protocol: as §1, §2, §3, §4, §5, §6, §7, §8
For data set [7], the system named is E. coli DSM1116. Nature of the data set: MIC determination (broth microdilution). The format is cell-based. The note with it: Escherichia coli, DSM1116; read-out: MIC E. coli DSM1116. The protocol:
as §1, §2, §3, §4, §5, §6, §7, §8

Data set [8] has as its system Mycobacterium phlei DSM 750. Nature of the data set: MIC determination (broth microdilution). The conditions noted are these: Mycolicibacterium phlei, DSM750; read-out: MIC M. phlei. The format is cell-based. As for the experimental part: as §1, §2, §3, §4, §5, §6, §7, §8
For data set [9], the system named is E. coli. Kind of data set: MIC against E. coli in presence of 50 % human serum. It is filed as cell-based. The note with it: Escherichia coli; E. coli in presence of 50 % human serum; read-out: MICEc 50%HS.
The target in data set [10] is E. coli DNA gyrase (Escherichia coli, UniProt P0AES4). Nature of the data set: E. coli gyrase DNA cleavage assay. The format is biochemical. More on the design: key to Gyrase inhibition strong+ / weak −: + strong inhibition; − weak inhibition in comparison to compound 16. The note with it: for Gyrase inhibition strong+ / weak −: qualitative DNA cleavage assay at 1 μM and 10 μM, in comparison to compound 16. The protocol:
The target activity of the synthesized derivatives was investigated using a DNA cleavage assay with purified and enzymatically active E. coli DNA gyrase[8] (see SI). In this assay, albicidin‐stabilized complexes of gyrase and plasmid DNA are trapped, and subsequently denatured and deproteinated to reveal DNA linearized by gyrase. […] For the best performing compounds, which were able to fully stabilize the cleavage complex at a concentration of 1 μM, the concentrations at half‐maximum cleavage (CC50) were determined (Figure 3).
1.2 Escherichia coli Gyrase Cleavage Inhibition Assay
E. coli gyrase cleavage assays were executed by setting up a master mix including 0.25 µg relaxed plasmid (pBR322) in 35 mM Tris-HCl (pH 7.5), 24 mM KCl, 4 mM MgCl2, 2 mM dithithreitol (DTT), 1.8 mM spermidine, 1 mM ATP, 6.5% (wt/vol) glycerol and 0.1 mg/ml bovine serum albumin per reaction.
Of this stock solution, 13.2 µL was aliquoted for each reaction into 1.5 mL Eppendorf tubes and supplemented with 0.3 µL of the appropriate compound dilution or DMSO with a […] DMSO concentration of 2% per reaction. The reactions were started with 1.5 µL of 50 nM (pre-screening) or 40 nM (IC50 determinations) wt E. coli gyrase in dilution buffer (50 mM Tris-HCl (pH 7.5), 100 mM KCl, 2 mM DTT, 1 mM EDTA, and 50% (wt/vol) glycerol) for a […] volume of 15 µL. Reactions were incubated at 37°C for 30 minutes before addition of 1.5 µL 0.2% (wt/vol) SDS and 0.75 µL proteinase K (0.2 mg/mL) and further incubation at 37°C for 30 minutes to trap cleavage complexes. Reactions were stopped with 15 µL chloroform:isoamyl alcohol (24: 1 v/v) and 15 µL of STEB (40% (wt/vol) sucrose, […] Tris-Cl pH 8, 10 mM EDTA, 0.5 mg/mL bromophenol blue). After brief vortexing and centrifugation at 2,300g for 5 min, 15 µL of the aqueous phase was loaded onto 1% (wt/vol) agarose in TAE (Tris-acetate […] and EDTA […]) gels supplemented with 10 µg/mL ethidium bromide.
The gels were run at 85 V for 2 hours.
DNA was visualized (602/50, UV Trans, auto optimal exposure) with a ChemiDoc MP (Bio-Rad Laboratories Inc., equipped with ImageLab Touch Software v2.0.0.27) and the percentage of cleaved DNA relative to the total amount of DNA per lane was determined with ImageJ software.[2] IC50 curves were generated in GraphPad Prism (v10.0.0) using the non-linear regression curve fit variable slope with four parameters and least squares regression.

Chain of E. coli DNA gyrase (P0AES4 whole entry): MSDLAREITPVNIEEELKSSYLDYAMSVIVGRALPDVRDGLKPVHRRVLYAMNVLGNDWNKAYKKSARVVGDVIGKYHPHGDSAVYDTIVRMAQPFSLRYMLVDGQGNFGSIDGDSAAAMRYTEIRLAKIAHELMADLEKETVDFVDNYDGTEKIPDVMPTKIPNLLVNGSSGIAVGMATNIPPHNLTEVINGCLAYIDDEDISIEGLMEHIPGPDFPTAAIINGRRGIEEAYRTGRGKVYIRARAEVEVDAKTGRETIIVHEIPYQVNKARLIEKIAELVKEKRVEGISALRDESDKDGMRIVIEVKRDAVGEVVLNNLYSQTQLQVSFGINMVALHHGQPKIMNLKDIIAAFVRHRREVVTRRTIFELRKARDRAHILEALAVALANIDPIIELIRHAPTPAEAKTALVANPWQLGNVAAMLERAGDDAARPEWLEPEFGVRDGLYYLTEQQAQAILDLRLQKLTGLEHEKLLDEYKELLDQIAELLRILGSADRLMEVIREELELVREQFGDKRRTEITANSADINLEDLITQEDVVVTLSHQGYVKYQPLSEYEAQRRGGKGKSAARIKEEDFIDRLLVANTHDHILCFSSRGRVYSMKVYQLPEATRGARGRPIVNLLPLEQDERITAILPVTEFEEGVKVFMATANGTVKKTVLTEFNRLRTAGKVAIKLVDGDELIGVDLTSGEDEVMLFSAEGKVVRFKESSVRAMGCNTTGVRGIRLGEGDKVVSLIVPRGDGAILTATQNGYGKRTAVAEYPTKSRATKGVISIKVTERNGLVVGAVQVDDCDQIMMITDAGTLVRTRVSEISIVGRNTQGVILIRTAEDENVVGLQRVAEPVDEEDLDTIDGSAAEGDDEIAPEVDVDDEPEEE

Take `COc1c(NC(=O)c2ccc(NC(=O)c3ccc(NC(=O)[C@H](CC#N)NC(=O)c4ccc(NC(=O)/C(C)=C/c5ccc(O)cc5)cc4)cc3)c(OC)c2O)ccc(C(=O)O)c1O` [compound 1, albicidin]: the IC50 in data set [1] is 40 nM.

Consider `COc1c(NC(=O)c2ccc(NC(=O)c3ccc(NC(=O)[C@H](Cc4cn[nH]n4)NC(=O)c4ccc(NC(=O)/C(C)=C/c5ccc(O)cc5)cc4)cn3)c(OC)c2O)ccc(C(=O)O)c1O` [compound 3, reference compound], for which the “Rt (retention time)” value in data set [2] was 8.15 min. Besides, the MIC in data set [3] is 0.031 µg/mL (≈ 0.035 µM); in data set [4], 0.031 µg/mL (≈ 0.035 µM); in [5] it was 0.016 µg/mL (≈ 0.0181 µM); in data set [6] it was 0.016 µg/mL (≈ 0.0181 µM); in data set [7] it was 0.016 µg/mL (≈ 0.0181 µM); in data set [8] it was 0.25 µg/mL (≈ 0.282 µM). For the same compound, in [9], the MIC is 0.5 µg/mL. Further, the CC50 in data set [10] (E. coli gyrase DNA cleavage, read-out: CC50 (concentration at half-maximum cleavage)) was found to be 66 nM. The “Gyrase inhibition strong+ / weak −” value in data set [10] was “+”.

`COc1c(NC(=O)c2ccc(NC(=O)c3ccc(NC(=O)[C@H](Cc4c[nH]nn4)NC(=O)c4ccc(NC(=O)c5ccc([N+](=O)[O-])cn5)cc4)cn3)c(OC)c2O)ccc(C(=O)O)c1O` [compound 8]: in data set [2], the “Rt (retention time)” value is listed as 8.30 min. For the same compound, the MIC in [3] is 0.063 µg/mL (≈ 0.0719 µM); in [4] it was 0.25 µg/mL (≈ 0.285 µM); in [5], 0.125 µg/mL (≈ 0.143 µM); in data set [6], 0.063 µg/mL (≈ 0.0719 µM); in [7], 0.063 µg/mL (≈ 0.0719 µM); in data set [8], 2 µg/mL (≈ 2.28 µM). The MIC in data set [9] amounted to 8 µg/mL. In addition, the “Gyrase inhibition strong+ / weak −” value in data set [10] is reported as “+”.

Take `COc1c(NC(=O)c2ccc(NC(=O)c3ccc(NC(=O)[C@H](Cc4c[nH]nn4)NC(=O)c4ccc(NC(=O)c5ccc(C(F)(F)F)cc5)cc4)cn3)c(OC)c2O)ccc(C(=O)O)c1O` [compound 5]: the “Rt (retention time)” value in data set [2] was 8.99 min. Also, the MIC is 0.5 µg/mL (≈ 0.557 µM) in data set [3]; 0.125 µg/mL (≈ 0.139 µM) in data set [4]; 0.063 µg/mL (≈ 0.0702 µM) in data set [5]; at most 0.016 µg/mL in data set [6]; 0.016 µg/mL (≈ 0.0178 µM) in data set [7]; 1 µg/mL (≈ 1.11 µM) in [8]. In data set [9], the MIC was 4 µg/mL. Further, the “Gyrase inhibition strong+ / weak −” value in data set [10] was “−”.

With `COc1ccc(C(=O)Nc2ccc(C(=O)N[C@@H](Cc3c[nH]nn3)C(=O)Nc3ccc(C(=O)Nc4ccc(C(=O)Nc5ccc(C(=O)O)c(O)c5OC)c(O)c4OC)nc3)cc2)nc1` [compound 6], the “Rt (retention time)” value in data set [2] was 8.29 min. Besides, the MIC in data set [3] was 0.125 µg/mL (≈ 0.145 µM); in data set [4], 0.125 µg/mL (≈ 0.145 µM); in data set [5] it was at most 0.016 µg/mL; in [6], at most 0.016 µg/mL; in [7] it was 0.031 µg/mL (≈ 0.036 µM); in [8] it was 2 µg/mL (≈ 2.32 µM). The MIC in data set [9] was 2 µg/mL. For the same compound, in data set [10], the “Gyrase inhibition strong+ / weak −” value is “+”.
